# Test results from patent US11124554B2, “Modified ligand-gated ion channels and methods of use” (Howard Hughes Medical Institute, priority 2016, dated 2021).
# “Also recorded” adds a separate entry of the source.
# Legend:
# α7^L131A-GlyR = biological target: T1, α7^L131A-GlyR (Homo sapiens, UniProt P36544, L131A); experiment: Agonist potency at chimeric channel (Table 9); format: cell-based
# T1 construct: expressed in transfected cells
# α7^L131G-5HT3 HC = experiment: Agonist potency at chimeric channel (Table 9); format: cell-based, human
# α7^L131G,Q139L-GlyR = biological target: T2, α7^L131G,Q139L-GlyR (Homo sapiens, UniProt P36544, L131G/Q139L); experiment: Agonist potency at chimeric channel (Table 9); format: cell-based
# T2 construct: expressed in transfected cells
# α7^L131G,Y217F-GlyR = biological target: T3, α7^L131G,Y217F-GlyR (Homo sapiens, UniProt P36544, L131G/Y217F); experiment: Agonist potency at chimeric channel (Table 9); format: cell-based
# T3 construct: expressed in transfected cells
# α7^Q79S,L131G-GlyR = biological target: T4, α7^Q79S,L131G-GlyR (Homo sapiens, UniProt P36544, L131G/Q79S); experiment: Agonist potency at chimeric channel (Table 9); format: cell-based
# T4 construct: expressed in transfected cells
# [1] = biological target: T5, α7^L131G,Q139L,Y217F-GlyR (Homo sapiens, UniProt P36544, L131G/Q139L/Y217F); experiment: cell-based; format: cell-based
# T5 construct: expressed in transfected cells
# α7^Q79S,L131G,Q139L-GlyR = biological target: T6, α7^Q79S,L131G,Q139L-GlyR (Homo sapiens, UniProt P36544, L131G/Q139L/Q79S); experiment: cell-based; format: cell-based
# T6 construct: expressed in transfected cells
# [2] = biological target: T7, α7^L131G,Q139L,Y217F-5HT3 HC (Homo sapiens, UniProt P36544, L131G/M226I/Q139L/T225I/Y217F); experiment: Agonist potency at chimeric channel (Table 9); format: cell-based; settings: α7^L131G,Q139L,Y217F-5HT3 HC
# T7 construct: expressed in transfected cells
# [3] = test system: mouse cortical neurons transfected with α7^L131G,Q139L,Y217F-GlyR; experiment: Action potential firing of transfected cortical neurons; format: cell-based; settings: 10 nM; even with >6-fold greater injected current
# From the text: FIGS. 9A-9D show activity of agonists on chimeric LGICs with a L131G mutation. FIG. 9A) A graph of EC50s for L131 LBD mutants against known agonists normalized to the unmodified α7-GlyR chimeric channel (log scale). […] Unmod.: unmodified α7-GlyR chimeric LGIC. FIG. 9D) Action potentials of a cortical neuron from a mouse brain transduced with α7^L131G,Q139L,Y217F-GlyR chimeric LGIC. […] After washout (WASH) of tropisetron, neuron firing is restored.
# DNA plasmids containing nucleic acids encoding a α7L131G,Q139L,Y217F-GlyR chimeric LGICs were transfected into mouse cortical neurons. […] Neuron activity was silenced by application of low concentration of agonist (FIG. 9C).
# T4 sequence (P36544 with tags, fused parts or gaps Q79S/L131G): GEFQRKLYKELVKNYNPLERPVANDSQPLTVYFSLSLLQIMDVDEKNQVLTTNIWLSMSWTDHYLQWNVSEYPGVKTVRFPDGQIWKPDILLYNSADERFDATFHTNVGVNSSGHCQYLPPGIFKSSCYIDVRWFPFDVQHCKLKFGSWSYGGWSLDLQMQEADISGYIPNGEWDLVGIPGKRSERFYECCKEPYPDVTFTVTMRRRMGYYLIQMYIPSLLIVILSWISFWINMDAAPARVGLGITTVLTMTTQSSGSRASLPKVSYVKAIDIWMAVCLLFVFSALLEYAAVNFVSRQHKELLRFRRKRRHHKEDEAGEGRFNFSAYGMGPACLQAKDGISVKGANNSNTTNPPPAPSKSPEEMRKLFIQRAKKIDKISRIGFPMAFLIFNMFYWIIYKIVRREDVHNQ
# T5 sequence (P36544 with tags, fused parts or gaps L131G/Q139L/Y217F): as the sequence (P36544 with tags, fused parts or gaps Q79S/L131G) above, with S57Q, Q117L, Y195F counted along it
# T1 sequence (P36544 with tags, fused parts or gaps L131A): as the sequence (P36544 with tags, fused parts or gaps Q79S/L131G) above, with S57Q, G109A counted along it
# T7 sequence (P36544 with tags, fused parts or gaps L131G/Q139L/Y217F/T225I/M226I limits assumed): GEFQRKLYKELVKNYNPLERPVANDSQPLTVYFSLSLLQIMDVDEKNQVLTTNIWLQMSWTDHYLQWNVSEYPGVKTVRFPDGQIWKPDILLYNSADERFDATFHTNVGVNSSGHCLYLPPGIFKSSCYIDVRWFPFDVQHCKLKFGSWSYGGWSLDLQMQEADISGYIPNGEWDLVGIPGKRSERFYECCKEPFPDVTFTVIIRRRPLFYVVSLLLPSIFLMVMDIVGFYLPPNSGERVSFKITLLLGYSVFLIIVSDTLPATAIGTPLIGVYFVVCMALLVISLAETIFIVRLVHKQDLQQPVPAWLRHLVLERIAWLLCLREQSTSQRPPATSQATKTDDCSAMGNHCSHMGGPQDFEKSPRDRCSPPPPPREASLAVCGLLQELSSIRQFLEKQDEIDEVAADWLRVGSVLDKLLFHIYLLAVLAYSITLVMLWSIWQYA
# T2 sequence (P36544 with tags, fused parts or gaps L131G/Q139L): as the sequence (P36544 with tags, fused parts or gaps Q79S/L131G) above, with S57Q, Q117L counted along it
# T3 sequence (P36544 with tags, fused parts or gaps L131G/Y217F): as the sequence (P36544 with tags, fused parts or gaps Q79S/L131G) above, with S57Q, Y195F counted along it
# T6 sequence (P36544 with tags, fused parts or gaps Q79S/L131G/Q139L): as the sequence (P36544 with tags, fused parts or gaps Q79S/L131G) above, with Q117L counted along it
smiles,measurement,setting,value
c1cnc2cc3c(cc2n1)[C@@H]1CNC[C@H]3C1 [Varenicline],potency enhancement,α7^L131A-GlyR,8 fold
same,potency enhancement,α7^L131G-5HT3 HC,16 fold
same,potency enhancement over α7-GlyR,"α7^L131G,Q139L-GlyR",21 fold
same,potency enhancement over α7-GlyR,"α7^L131G,Y217F-GlyR",21 fold
same,improved potency over α7-GlyR,"α7^Q79S,L131G-GlyR",89 fold
same,improvement in potency over α7-GlyR,[1],387 fold
same,improved potency over α7-GlyR,"α7^Q79S,L131G,Q139L-GlyR",31 fold
same,improved potency over a7-5HT3,[2],131 fold
same,suppression of action potential firing,[3],silenced; also recorded: potently suppressed
